From US11986480B2, “Heterocyclic compound” (TOHOKU UNIVERSITY, priority 2017, dated 2024)
Structures can show the parent of a compound that is named as a salt.

The compounds below were run on EmGFP-HaloTag (assay: Test Example 1: HeLa cells stably expressing EmGFP-HaloTag, Western blot GFP/actin (Testing Method A)). Settings: 100 uM, 24 hours, 1 or less = degradation promoted.
Assay type: cell-based
Protocol: Test Example 1: Evaluation Method Using Cell Stably Expressing EmGFP-HaloTag (Testing Method A)
(§1) HeLa cells stably expressing EmGFP-HaloTag were inoculated to Dulbecco's Modified Eagle Medium (DMEM) and cultured for 24 hours. Then, a test compound (specifically, compounds of Examples 1 to 7, 9 to 11, 13 to 15, 17 to 20, 24 to 27, 29, 32 to 33, 36 to 42, 44 to 46 and 56) was added thereto at the final concentration shown in Table 2, followed by incubation for 24 hours under conditions of 37° C./5% CO2. The cells were washed with PBS three times and treated with a cell lysis solution containing a proteolytic enzyme inhibitor to obtain a cell extract. The cell extract was subjected to SDS-PAGE. After the electrophoresis, GFP and actin were detected by Western blot. The ratio of the GFP/actin value of the drug-treated cells to the GFP/actin value of a control group in drug-untreated cells was regarded as an activity value. A value of 1 or less represents that degradation of EmGFP-HaloTag was promoted.

| SMILES | Activity value (GFP/actin of drug-treated cells relative to drug-untreated control) |
| --- | --- |
| Nc1nc2c(nc(C(=O)N3CCCCC3C(=O)NCCOCCOCCOCCOCCOCCCCCCCl)n2Cc2ccc(F)cc2)c(=O)[nH]1 (stereo not shown) [Example 46, 1-((2-Amino-9-(4-fluorobenzyl)-6-oxo-6,9-dihydro-1H-purin-8-yl)carbonyl)-N-(21-chloro-3,6,9,12,15-pentaoxahenicos-1-yl)piperidine-2-carboxamide] | 0.2 |

These compounds were tested on EmGFP-HaloTag (assay: Test Example 2: HeLa cells transiently overexpressing EmGFP-HaloTag, Western blot GFP/actin (Testing Method B)). Settings: 1 uM, 24 hours, 1 or less = degradation promoted.
Assay type: cell-based
Protocol: Test Example 2: Evaluation Using Cell Transiently Overexpressing EmGFP-HaloTag (Testing Method B)
as §1, with “cells” for “cells stably expressing EmGFP-HaloTag”, “hours. Cells overexpressing EmGFP-HaloTag were obtained by transfection with a plasmid pCMV-EmGFP-HaloTag encoding EmGFP-HaloTag. On the next day,” for “hours. Then,”, “Examples 8, 12, 16, 21” for “Examples 1”, “to 23, 28, 30” for “to 7, 9 to 11, 13 to 15, 17 to 20, 24 to 27, 29, 32 to 33, 36 to 42, 44 to 46”, “and 31)” for “and 56)”

| SMILES | Activity value (GFP/actin of drug-treated cells relative to drug-untreated control) |
| --- | --- |
| Nc1nc2c(nc(NCCC(=O)NCCOCCOCCOCCOCCOCCCCCCCl)n2Cc2ccc(F)cc2)c(=O)[nH]1 [Example 8, N^3-(2-Amino-9-(4-fluorobenzyl)-6-oxo-6,9-dihydro-1H-purin-8-yl)-N-(21-chloro-3,6,9,12,15-pentaoxahenicos-1-yl)-β-alaninamide] | 0.7 |
| CC(=O)N[C@@H](CSc1cn(Cc2ccc(F)cc2)c(=O)nc1N)C(=O)NCCOCCOCCOCCOCCOCCCCCCCl [Example 21, N^2-Acetyl-S-(4-amino-1-(4-fluorobenzyl)-2-oxo-1,2-dihydropyrimidin-5-yl)-N-(21-chloro-3,6,9,12,15-pentaoxahenicos-1-yl)-L-cysteinamide Trifluoroacetate] | 0.3 |
| CC(=O)N[C@@H](CSc1nc2c(=O)[nH]c(N)nc2n1Cc1cccc(F)c1)C(=O)NCCOCCOCCOCCOCCOCCCCCCCl [Example 23] | 0.7 |
| CC(=O)N[C@@H](CSc1nc2c(=O)[nH]c(N)nc2n1C1CCCCC1)C(=O)NCCOCCOCCOCCOCCOCCCCCCCl [Example 28, N^2-acetyl-S-(2-amino-9-cyclohexyl-6-oxo-6,9-dihydro-1H-purin-8-yl)-N-(21-chloro-3,6,9,12,15-pentaoxahenicos-1-yl)-L-cysteinamide] | 0.4 |
| CC(=O)N[C@@H](CSc1nc2c(=O)n(C)c(N)nc2n1Cc1ccc(F)cc1)C(=O)NCCOCCOCCOCCOCCOCCCCCCCl [Example 30, N^2-Acetyl-S-(2-amino-9-(4-fluorobenzyl)-1-methyl-6-oxo-6,9-dihydro-1H-purin-8-yl)-N— (21-chloro-3,6,9,12,15-pentaoxahenicos-1-yl)-L-cysteinamide] | 0.2 |
| Nc1nc2c(nc(CCCOCCOCCOCCOCCOCCOCCCCCCCl)n2Cc2ccc(F)cc2)c(=O)[nH]1 [Example 31, 2-Amino-8-(25-chloro-4,7,10,13,16,19-hexaoxapentacos-1-yl)-9-(4-fluorobenzyl)-1,9-dihydro-6H-purin-6-one] | 0.4 |

Same assay, conditions: 10 uM, 24 hours, 1 or less = degradation promoted

| SMILES | Activity value (GFP/actin of drug-treated cells relative to drug-untreated control) |
| --- | --- |
| CC(=O)N[C@@H](CSc1nc2c(=O)[nH]c(N)nc2n1C1CCCC1)C(=O)NCCOCCOCCOCCOCCOCCCCCCCl [Example 12, N^2-Acetyl-S-(2-amino-9-cyclopentyl-6-oxo-6,9-dihydro-1H-purin-8-yl)-N-(21-chloro-3,6,9,12,15-pentaoxahenicos-1-yl)-L-cysteinamide] | 0.45 |
| Nc1nc2c(nc(C#CCOCCOCCOCCOCCOCCOCCCCCCCl)n2Cc2ccc(F)cc2)c(=O)[nH]1 [Example 16, 2-Amino-8-(25-chloro-4,7,10,13,16,19-hexaoxapentacos-1-yn-1-yl)-9-(4-fluorobenzyl)-1,9-dihydro-6H-purin-6-one] | 0.4 |
| CC(=O)N[C@@H](CSc1nc2c(=O)[nH]c(N)nc2n1Cc1ccccc1F)C(=O)NCCOCCOCCOCCOCCOCCCCCCCl [Example 22, N^2-acetyl-S-(2-amino-9-(2-fluorobonzvl)-6-oxo-6,9-dihydro-1H-purin-8-yl)-N-(21-chloro-3,6,9,12,15-pentaoxahenicos-1-yl)-L-cysteinamide] | 0.7 |
